One test has as its target KRas G12C (Homo sapiens, UniProt P01116, C118S/C51S/C80L/G12C). Nature of the test: KRas G12C Modification Assay (LCMS detection of covalent adduct). The class given is binding. The procedure, abridged: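 Covalent modification was read by reverse-phase LC/MS of intact protein after compound exposure, each reaction stopped at its time point with 25 mM acetic acid. Unmodified-protein signal, taken as percent of total, was normalised to untreated protein and reported as POC.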

In test [1] the test system is NCI-H358 cells (express KRas G12C), Phospho-ERK. Nature of the test: Cellular inhibition of KRas G12C: Phospho-ERK in NCI-H358 cells. It is filed as cell-based. The settings on record: Homo sapiens. The procedure, abridged:
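IC50 derived by 4-parameter fit of GAPDH-normalized pERK(Thr202/Tyr204) signal, as percent of DMSO control. Signal came from in-cell immunodetection with infrared secondaries after 3 h compound exposure of KRas G12C NCI-H358 cells at 0.5% DMSO.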

Setting [2] is: normalized percent of control, tested at 5 μM concentration for 3 hours.
Where [3] appears, read: NCI-H358, 3 h, pERK(Thr202/Tyr204) normalized with GAPDH, NCI-H358 cells, 3 hours, read-out: IC50.
Setting [4] is: pERK(Thr202/Tyr204) normalized with GAPDH, NCI-H358 cells, 3 hours, read-out: IC50.

Read-outs that look alike come from different tables or passages of the source.

For `C=CC(=O)N1CCN(c2nc(O[C@H](C)CN(C)C)nc3c2CCN(c2cc(O)cc4ccccc24)C3)CC1CC#N` (stereo partly drawn) [Example 150, 2-(1-acryloyl-4-(2-(((R)-1-(dimethylamino)propan-2-yl)oxy)-7-(3-hydroxynaphthalen-1-yl)-5,6,7,8-tetrahydropyrido[3,4-d]pyrimidin-4-yl)piperazin-2-yl)acetonitrile], the POC entry on KRas G12C (setting [2]) is “C (“C”>50% POC)”. The IC50 in test [1] (setting [3]) lay in the range of 0.0001 to 1 µM.
The like results for `C=CC(=O)N1CCN(c2nc(O[C@H](C)CN(C)C)nc3c2CCN(c2cccc4ccccc24)C3)CC1CC#N` (stereo partly drawn) [Example 151, 2-(1-acryloyl-4-(2-(((R)-1-(dimethylamino)propan-2-yl)oxy)-7-(naphthalen-1-yl)-5,6,7,8-tetrahydropyrido[3,4-d]pyrimidin-4-yl)piperazin-2-yl)acetonitrile] were, in that order, “B (“B”>25% POC−≤50% POC)” and over 1 µM.
For the compound `C=CC(=O)N1CCN(c2nc(O[C@H](C)CN(C)C)nc3c2CCN(c2c(C)ccc4[nH]ncc24)C3)CC1CC#N` (stereo partly drawn) [Example 152, 2-[4-[2-[(1R)-2-(dimethylamino)-1-methyl-ethoxy]-7-(5-methyl-1H-indazol-4-yl)-6,8-dihydro-5H-pyrido[3,4-d]pyrimidin-4-yl]-1-prop-2-enoyl-piperazin-2-yl]acetonitrile], on KRas G12C (setting [2]), the POC result was “C (“C”>50% POC)”. Moreover, in test [1] (setting [4]), the IC50 was in the range of 0.0001 to 1 µM.
The like results for `C=CC(=O)N1CCN(c2nc(OCCCN3C[C@@H]4C[C@H]3CO4)nc3c2CCN(c2cc(O)cc4ccccc24)C3)CC1CC#N` (stereo partly drawn) [Example 153, 2-[4-[7-(3-hydroxy-1-naphthyl)-2-[3-[(1S,4S)-2-oxa-5-azabicyclo[2.2.1]heptan-5-yl]propoxy]-6,8-dihydro-5H-pyrido[3,4-d]pyrimidin-4-yl]-1-prop-2-enoyl-piperazin-2-yl]acetonitrile] were, in that order, “C (“C”>50% POC)” and 0.0001 to 1 µM.
With `C=CC(=O)N1CCN(c2nc(OCCCN3C[C@@H]4C[C@H]3CO4)nc3c2CCN(c2cccc4ccccc24)C3)CC1CC#N` (stereo partly drawn) [Example 154, 2-[4-[7-(1-naphthyl)-2-[3-[(1S,4S)-2-oxa-5-azabicyclo[2.2.1]heptan-5-yl]propoxy]-6,8-dihydro-5H-pyrido[3,4-d]pyrimidin-4-yl]-1-prop-2-enoyl-piperazin-2-yl]acetonitrile], at KRas G12C (setting [2]), the POC entry is reported as “C (“C”>50% POC)”. Besides, the IC50 in test [1] (setting [3]) is 0.0001 to 1 µM.
Regarding `C=CC(=O)N1CCN(c2nc(OC[C@@H]3CCCN3C)nc3c2CCN(c2c(C)ccc4[nH]ncc24)C3)CC1` [Example 155, (S)-1-(4-(7-(5-methyl-1H-indazol-4-yl)-2-((1-methylpyrrolidin-2-yl)methoxy)-5,6,7,8-tetrahydropyrido[3,4-d]pyrimidin-4-yl)piperazin-1-yl)prop-2-en-1-one], on KRas G12C (5 µM), the POC entry is reported as “C (key: “A”≤25% POC; “B”>25% POC−≤50% POC; “C”>50% POC)”. The IC50 in test [1] (setting [4]) was 0.0001 to 1 µM.
In the case of `C=CC(=O)N1CCN(c2nc(OC[C@@H]3CCCN3C)nc3c2CCN(c2c(C(F)(F)F)ccc4[nH]ncc24)C3)CC1` [Example 156, (S)-1-(4-(2-((1-methylpyrrolidin-2-yl)methoxy)-7-(5-(trifluoromethyl)-1H-indazol-4-yl)-5,6,7,8-tetrahydropyrido[3,4-d]pyrimidin-4-yl)piperazin-1-yl)prop-2-en-1-one], the POC result at KRas G12C (setting [2]) is reported as “C (“C”>50% POC)”. Besides, the IC50 in test [1] (setting [3]) is 0.0001 to 1 µM.
The like results for `C=CC(=O)N1CCN(c2nc(OC[C@@H]3CCCN3C)nc3c2CCN(c2c(OC)ccc4[nH]ncc24)C3)CC1` [Example 157, (S)-1-(4-(7-(5-methoxy-1H-indazol-4-yl)-2-((1-methylpyrrolidin-2-yl)methoxy)-5,6,7,8-tetrahydropyrido[3,4-d]pyrimidin-4-yl)piperazin-1-yl)prop-2-en-1-one] were, in that order, “C (“C”>50% POC)” and over 1 µM.
Turning to `C=CC(=O)N1CCN(c2nc(OC[C@@H]3CCCN3C)nc3c2CCN(c2ccccc2C(C)C)C3)CC1` [Example 158, 1-[4-[7-(2-isopropylphenyl)-2-[[(2S)-1-methylpyrrolidin-2-yl]methoxy]-6,8-dihydro-5H-pyrido[3,4-d]pyrimidin-4-yl]piperazin-1-yl]prop-2-en-1-one], at KRas G12C (setting [2]), the POC entry is “C (“C”>50% POC)”. The concentration for half-maximal inhibition (IC50) in test [1] (setting [4]) was over 1 µM.
For `C=CC(=O)N1CCN(c2nc(OC[C@@H]3CCCN3C)nc3c2CCN(c2ccccc2C(F)(F)F)C3)CC1` [Example 159, (S)-1-(4-(2-((1-methylpyrrolidin-2-yl)methoxy)-7-(2-(trifluoromethyl)phenyl)-5,6,7,8-tetrahydropyrido[3,4-d]pyrimidin-4-yl)piperazin-1-yl)prop-2-en-1-one], the POC result at KRas G12C (setting [2]) is listed as “C (“C”>50% POC)”. For the same compound, the IC50 in test [1] (setting [3]) is over 1 µM.
As to `C=CC(=O)N1CCN(c2nc(OCCCN3CCCCC3)nc3c2CCN(c2c(C)ccc4[nH]ncc24)C3)CC1` [Example 160, 1-(4-(7-(5-methyl-1H-indazol-4-yl)-2-(3-(piperidin-1-yl)propoxy)-5,6,7,8-tetrahydropyrido[3,4-d]pyrimidin-4-yl)piperazin-1-yl)prop-2-en-1-one], the POC entry on KRas G12C (setting [2]) is recorded as “C (“C”>50% POC)”. For the same compound, in test [1] (setting [4]), the half-maximal inhibitory concentration (IC50) is over 1 µM.
The like results for `C=CC(=O)N1CCN(c2nc(OCC3CCN(C)C3)nc3c2CCN(c2c(C)ccc4[nH]ncc24)C3)CC1` (stereo not drawn) [Example 161, 1-[4-[7-(5-methyl-1H-indazol-4-yl)-2-[(1-methylpyrrolidin-3-yl)methoxy]-6,8-dihydro-5H-pyrido[3,4-d]pyrimidin-4-yl]piperazin-1-yl]prop-2-en-1-one] were, in that order, “C (“C”>50% POC)” and over 1 µM.
As for `C=CC(=O)N1CCN(c2nc(O[C@H](C)CN(C)C)nc3c2CCN(c2c(C)ccc4[nH]ncc24)C3)CC1` [Example 162, 1-[4-[2-[(1R)-2-(dimethylamino)-1-methyl-ethoxy]-7-(5-methyl-1H-indazol-4-yl)-6,8-dihydro-5H-pyrido[3,4-d]pyrimidin-4-yl]piperazin-1-yl]prop-2-en-1-one], the POC entry at KRas G12C (setting [2]) is “B (“B”>25% POC−≤50% POC)”. Further, the IC50 in test [1] (setting [4]) is over 1 µM.
The like results for `C=CC(=O)N1CCN(c2nc(OCCN(CC)CC)nc3c2CCN(c2c(C)ccc4[nH]ncc24)C3)CC1` [Example 163, 1-(4-(2-(2-(diethylamino)ethoxy)-7-(5-methyl-1H-indazol-4-yl)-5,6,7,8-tetrahydropyrido[3,4-d]pyrimidin-4-yl)piperazin-1-yl)prop-2-en-1-one] were, in that order, “C (“C”>50% POC)” and over 1 µM.
Take `C=CC(=O)N1CCN(c2nc(OCCN3CCCCC3)nc3c2CCN(c2c(C)ccc4[nH]ncc24)C3)CC1` [Example 164]: the POC entry on KRas G12C (setting [2]) is “C (“C”>50% POC)”. Further, in test [1] (setting [4]), the IC50 is over 1 µM.
Regarding `C=CC(=O)N1CCN(c2nc(OCCCN3CCOCC3)nc3c2CCN(c2c(F)c(O)cc4ccccc24)C3)CC1` [Example 165, 1-[4-[7-(2-fluoro-3-hydroxy-1-naphthyl)-2-(3-morpholinopropoxy)-6,8-dihydro-5H-pyrido[3,4-d]pyrimidin-4-yl]piperazin-1-yl]prop-2-en-1-one], the POC result on KRas G12C (5 µM) is “C (key: “A”≤25% POC; “B”>25% POC−≤50% POC; “C”>50% POC)”. Moreover, in test [1] (NCI-H358, 3 h), the half-inhibitory concentration (IC50) is over 1 µM.
The like results for `C=CC(=O)N1CCN(c2nc(OCCCN3CCOCC3)nc3c2CCN(c2cc(O)cc4sc(C)nc24)C3)CC1` [Example 166, 1-[4-[7-(6-hydroxy-2-methyl-1,3-benzothiazol-4-yl)-2-(3-morpholinopropoxy)-6,8-dihydro-5H-pyrido[3,4-d]pyrimidin-4-yl]piperazin-1-yl]prop-2-en-1-one] were, in that order, “B (key: “A”≤25% POC; “B”>25% POC−≤50% POC; “C”>50% POC)” and over 1 µM.
Regarding `C=CC(=O)N1CCN(c2nc(OCCCN3CCOCC3)nc3c2CCN(c2cc(O)cc4cc(C)[nH]c24)C3)CC1` [Example 167, 1-(4-(7-(5-hydroxy-2-methyl-1H-indol-7-yl)-2-(3-morpholinopropoxy)-5,6,7,8-tetrahydropyrido[3,4-d]pyrimidin-4-yl)piperazin-1-yl)prop-2-en-1-one], the POC entry on KRas G12C (setting [2]) was “B (“B”>25% POC−≤50% POC)”. Besides, the concentration for half-maximal inhibition (IC50) in test [1] (setting [4]) was over 1 µM.
Take `C=CC(=O)N1CCN(c2nc(OCCCN3CCOCC3)nc3c2CCN(c2cc(O)cc4ccccc24)C3)C(CO)C1` (stereo not drawn) [Example 168, 1-(3-(hydroxymethyl)-4-(7-(3-hydroxynaphthalen-1-yl)-2-(3-morpholinopropoxy)-5,6,7,8-tetrahydropyrido[3,4-d]pyrimidin-4-yl)piperazin-1-yl)prop-2-en-1-one]: on KRas G12C (setting [2]), the POC entry was “C (“C”>50% POC)”. Moreover, the 50% inhibitory concentration (IC50) in test [1] (setting [4]) is over 1 µM.
For the compound `C=CC(=O)N1CCN(c2nc(OC[C@@H]3CCCN3C)nc3c2CCN(c2cc(O)cc4ccccc24)C3)C(CO)C1` (stereo partly drawn) [Example 169, 1-[3-(hydroxymethyl)-4-[7-(3-hydroxy-1-naphthyl)-2-[[(2S)-1-methylpyrrolidin-2-yl]methoxy]-6,8-dihydro-5H-pyrido[3,4-d]pyrimidin-4-yl]piperazin-1-yl]prop-2-en-1-one], the POC result at KRas G12C (setting [2]) is on record as “C (“C”>50% POC)”. Besides, the IC50 in test [1] (setting [3]) lay within 0.0001 to 1 µM.
On to `C=CC(=O)N1CCN(c2nc(OCCN(C)C)nc3c2CCN(c2cc(O)cc4ccccc24)C3)CC1CC#N` (stereo not drawn) [Example 170, 2-(1-acryloyl-4-(2-(2-(dimethylamino)ethoxy)-7-(3-hydroxynaphthalen-1-yl)-5,6,7,8-tetrahydropyrido[3,4-d]pyrimidin-4-yl)piperazin-2-yl)acetonitrile], for which, on KRas G12C (setting [2]), the POC entry is reported as “C (“C”>50% POC)”. Besides, the IC50 in test [1] (setting [4]) lay within 0.0001 to 1 µM.

The IC50 is the midpoint of a concentration-inhibition curve.

The values above are taken from patent US10125134B2 (Mirati Therapeutics, Inc., priority 2016, dated 2018).
